Experimental data from a melting point compilation (Tetko et al.).

## O=C(O)c1cnoc1
  melting point: 99 to 101 °C

## Nc1nc(Cl)ccc1F
  melting point: 84 to 86 °C

## O=Cc1cn(Cc2ccccc2)nc1-c1cccs1
  melting point: 90 to 91 °C

## O=Cc1cccc(Br)c1OC(F)F
  melting point: 49 to 51 °C

## CC(=O)c1ccc(C(=O)O)c(F)c1
  melting point: 159 to 161 °C

## Nc1ccc(S(=O)(=O)Nc2ccc(Cl)c(Cl)c2)cc1
  melting point: 223 to 225 °C

## CC(C)(C)c1cc([N+](=O)[O-])c(O)c(C(C)(C)C)c1
  melting point: 58 to 60 °C

## CC(N)(C(=O)O)c1ccc(Cl)cc1 (configuration not stated)
  melting point: 297 to 299 °C

## OCc1ccc2c(c1)NCC2
  melting point: 49 to 51 °C

## O=S(=O)(F)Cc1ccc(Cl)nc1
  melting point: 81 to 83 °C

## O=[N+]([O-])c1ccc(Cl)c(CCl)c1
  melting point: 61 to 63 °C

## CC(C)[C@H](NC(=O)c1c(F)cccc1F)C(=O)O
  melting point: 172 to 174 °C

## COC(=O)c1nc(-c2ccccc2)oc1N
  melting point: 193 to 195 °C

## N#Cc1cccc(OCCCCC(=O)O)c1
  melting point: 78 to 80 °C

## Cc1ccc(NC(=O)C2CCNCC2)nc1
  melting point: 145 to 147 °C

## c1ccc2cc(C3CO3)ccc2c1 (configuration not stated)
  melting point: 57 to 59 °C

## O=C(O)Cc1coc2cc3c(cc12)CCC3
  melting point: 151 to 153 °C

## NC1CCN(c2ccc(F)c(Cl)c2)C1=O (configuration not stated)
  melting point: 110 to 112 °C

## NNc1ccc(S(=O)(=O)Nc2ccc(Cl)cc2)cc1[N+](=O)[O-]
  melting point: 187 to 189 °C

## CC(C)(C)OC(=O)NC(C)(C)c1noc(CCl)n1
  melting point: 79 to 81 °C

## CC(C)CCc1cc(N)on1
  melting point: 61 to 63 °C

## NC(=O)Nc1cccnc1
  melting point: 189 to 191 °C

## N#Cc1c(CCl)cn2ccccc12
  melting point: 143 to 145 °C

## O=c1c(Cl)c(Cl)cnn1-c1ccc(C(F)(F)F)cn1
  melting point: 111 to 115 °C

## O=C(O)Cc1coc2cc(F)ccc12
  melting point: 103 to 105 °C

## Cc1ccc2c(c1)NC(=O)C(C)O2 (configuration not stated)
  melting point: 146 to 148 °C

## O=C(Nc1ccc(O)cc1)C1CC1
  melting point: 212 to 214 °C

## O=C(O)c1ccc(OCCO)cc1
  melting point: 177 to 179 °C

## CC(O)c1cccc(O)c1 (configuration not stated)
  melting point: 112 to 114 °C

## N#Cc1cc2c(nc1N)CCCC2
  melting point: 195 to 197 °C

## O=C(O)c1cc(Cl)ccc1OCC(F)(F)F
  melting point: 121 to 123 °C

## COC(=O)c1cc2ccccc2nc1Cl
  melting point: 82 to 84 °C

## O=C(O)c1nccn2ccnc12
  melting point: 167 to 169 °C

## COCCNC(C)(C)CO
  melting point: 44 to 46 °C

## NC(C(=O)O)c1ccc(Cl)cc1 (configuration not stated)
  melting point: 219 to 221 °C

## O=C(O)C1CCc2ccccc21 (configuration not stated)
  melting point: 54 to 56 °C

## Cc1noc(-c2ccc(N)c(Cl)c2)n1
  melting point: 141 to 143 °C

## O=C(O)CCCOc1ccc(Cl)cc1
  melting point: 114 to 116 °C

## OCc1nccn1CC(F)(F)F
  melting point: 89 to 91 °C

## CCN(c1ccccc1)S(=O)(=O)c1cc(N)ccc1Cl
  melting point: 102 to 104 °C

## CC(Cl)C(=O)NC1CCCC(C)C1C (configuration not stated)
  melting point: 163 to 165 °C

## Cc1c(C(=O)NN)oc2ccccc12
  melting point: 139 to 141 °C

## CC(C)Nc1ccc(Br)cn1
  melting point: 69 to 71 °C

## CCN(CC)S(=O)(=O)c1cc(C(=O)O)n(C)c1
  melting point: 174 to 176 °C

## CSc1noc(N)n1
  melting point: 100 to 102 °C

## CC(C)(C)c1ccc(Oc2ccc(C(=O)O)cc2F)cc1
  melting point: 171 to 173 °C

## Cc1ccc(S(=O)(=O)Cc2ccc(C(=O)O)cc2)cc1
  melting point: 281 to 283 °C

## O=C(O)c1cnc(S)n1-c1ccccc1
  melting point: 245 to 247 °C

## COc1ccc(C(C)=O)cc1Cn1cccn1
  melting point: 80 to 82 °C

## NC(=S)/C(=C/c1ccccc1O)C(=O)O
  melting point: 243 to 245 °C

## CCCCOc1ccc(-c2nnc(N)o2)cc1
  melting point: 229 to 231 °C

## Cc1c(Cl)cc(C(=O)O)cc1S(=O)(=O)Cl
  melting point: 167 to 169 °C

## CCOC(=O)CN(CCC#N)c1ccc(OC)cc1
  melting point: 61 to 63 °C

## Nc1ncc(Cc2cccc(C(F)(F)F)c2)s1
  melting point: 73 to 77 °C

## O=C(O)c1c[nH]c2cccc([N+](=O)[O-])c12
  melting point: 170 to 172 °C

## NC1CCN(c2ccc(C(F)(F)F)cc2)C1=O (configuration not stated)
  melting point: 132 to 134 °C

## N#CC1(c2cccc(Br)c2)CCOCC1
  melting point: 90 to 92 °C
